Each structure is given as a SMILES string.

Usually IC50 stands for the midpoint of a concentration-inhibition curve.

The subject of data set [1] is hiPSC-CMs (iCell Cardiomyocytes^2). Briefly: Ca2+ transient assay (CTCM) with acute cardiac hazard scoring in hiPSC-CMs. Conditions: for incidence of EADs / prolongation of CTD90: 3 nM.
Procedure: Cells were pre-plated and seeded in fibronectin-coated 96-well plates at a density suited to form a monolayer and maintained in culture in a stage incubator (37°C, 5% CO2) according to the instructions of the cell provider. […] The beating monolayer was taken from frozen vials iCell Cardiomyocytes^2 (≈5 million cells/vial), which were plated onto three 96-well plates (≈50K/well).
Cells from these lot numbers were from the same donor (Apparently healthy normal, age <18) (according to FUJIFILM Cellular Dynamics).
On the day of the experiment, the culture medium in the 96-well plates containing the monolayers of hiPSC-CMs was replaced with Tyrode’s solution (Sigma, No. T2397) supplemented with 10 mM HEPES together with KCl to yield isokalemic (4.2 mM K^+) conditions.
The Ca^2+-sensitive fluorescence dye Cal-520™ AM (Cat. no.21131; AAT Bioquest) was used to capture the intracellular Ca^2+ transients in hiPSC-CMs. […] Briefly, Cal-520 was incubated for 70 min followed by a wash-out with supplemented Tyrode’s solution and a 30-min recovery before starting the experiments at 37°C. […] Compounds were added automatically using the Functional Drug Screen System (FDSS/µCell; Hamamatsu, Japan) head stage by adding 100 µl of the 2-fold concentrated compound solution to wells with hiPSC-CMs already containing a volume of 100 µl of the experimental solution, reaching the final intended test concentration in 0.1% DMSO.
The spontaneous beating activity of hiPSC-CMs was assessed through measurement of the Ca^2+ fluorescence signal integrated over the whole well. Ten minutes before starting the recordings, the experimental plates were put into the FDSS system for stabilization and a baseline recording was captured for 4 min followed by compound addition. The effect of the compounds was recorded around 30 min after compound addition. The Ca^2+ transient signals were sampled every 16 ms (frame rate of 62.5 Hz) in hiPSC-CMs maintained at 37°C during the acquisition time. […] In addition, beat rate (BR = peak count/min) and amplitude (amp = difference between max. and min of every beat) were measured, and incidence of cellular arrhythmias, e.g., EAD-like activity (considered a surrogate of TdP), cessation of beating (∼ stop beating), and below beating below quantification level (caused by low amplitude of the Ca^2+ transient or by ectopic beat: BBQL) were also recorded (Figures 1B,C).
For all individual experiments, delta percent (Δ%) at 30 min with respect to the baseline value was calculated [e.g., ∆% for CTD90 = (CTD90 30 min-CTD90 0 min)/CTD90 0 min) × 100].
TIs indicate an interval where, with a certain confidence level (1- α = 0.95), a specified proportion (p = 0.90) of a sampled population falls. […] These ΔΔ% net effects were the values obtained after normalization for baseline (Δ% vs. baseline) per well and the aggregated compound-treated wells are vehicle corrected by subtraction with the aggregated Δ% of the corresponding DMSO wells from the same plate [e.g., ΔΔ% = median Δ% drug - median Δ% DMSO]. The categorization was made first for each concentration and then aggregated per compound and test site. […] Similarly, a compound was categorized as decreased if it was in a category “decreased” in at least one of the four concentrations.
The cut-off values are net changes (ΔΔ% changes vs. baseline and vehicle), which are based on the statistical tolerance intervals (TIs) (Δ% changes vs. baseline). TIs indicate an interval where, with a certain confidence level, a specified proportion of a sampled population falls.
For data set [2], the system named is hiPSC-CMs (iCell Cardiomyocytes). Put plainly: Ca2+ transient assay (CTCM), lot-to-lot comparison in iCell Cardiomyocytes (non-square cells, Lot 103674). It is filed as cell-based, human. The procedure:
To investigate lot-to-lot variability in hiPSC-CMs, we tested 19 drugs with known clinical cardiac risk in other lots of iCell Cardiomyocytes^2. Fifty-five reference drugs were tested in iCell Cardiomyocytes^2 -Lot12012, 18 reference drugs were tested in iCell Cardiomyocytes^2 (Lot105091), and 18 reference drugs were tested in iCell Cardiomyocytes (Lot103674) (nonsquare cells).

Another data set has as its system IKs. More on the design: method as in Liu et al., 2010. Conditions: ref Liu et al., 2010; cited from earlier work.
A further data set relates to IKr. Details: method as in Liu et al., 2010. Conditions: ref Liu et al., 2010; cited from earlier work.
Setting [3] is: similar among the iCell Cardiomyocytes^2 and iCell Cardiomyocytes lots.
Where [4] appears, read: 3 nM (2-fold fCmax), n = 131 studies.
Setting [5] is: updated scoring: 10 points for decrease in beat rate by ≥ −30%.
Where [6] appears, read: over the tested concentrations (Figure 3).

In the case of `CC(C)NCC(O)COc1ccc(CC(N)=O)cc1` (stereo not drawn) [Atenolol], the hazard score entry in data set [1] (setting [3]) is on record as “no hazard”. Consider `[Ba+2].[Cl-].[Cl-]` [BaCl2], for which the “effect on hiPSC-CMs (detection in the assay)” value in data set [1] (concentration not given) is “no effect”. With `C[C@H](CS)C(=O)N1CCC[C@H]1C(=O)O` [Captopril], the hazard score entry in data set [1] (setting [3]) is recorded as “no hazard”.

Take `O=C(O)COCCN1CCN(C(c2ccccc2)c2ccc(Cl)cc2)CC1` (stereo not drawn) [Cetirizine]: the hazard score result in data set [1] (1 µM (16-fold the fCmax), numerous studies) is on record as “no hazard”. On to `CN(CCOc1ccc(NS(C)(=O)=O)cc1)CCc1ccc(NS(C)(=O)=O)cc1` [Dofetilide], for which the “share of studies identified as high (red color) hazard score” value in data set [1] (setting [4]) was 21%. Also, the “share of studies identified as very high (black color) hazard score” value in data set [1] (setting [4]) is on record as 71%. Moreover, the “share of studies identified as yellow hazard score” value in data set [1] (setting [4]) worked out at 8%. Also, the “incidence of EADs” value in data set [1] (first iCell Cardiomyocytes^2 lot (12,012)) worked out at 63%; in data set [1] (second iCell Cardiomyocytes^2 lot), 71%; in data set [2] (3 nM, iCell Cardiomyocytes), 65%. Besides, the “prolongation of CTD90” value in data set [1] (lot 10,591 (n = 28)) stood at 330%; in data set [1] (lot 12,012 (n = 144)) it was 305%; in data set [2] (3 nM, lot105091 as printed (n = 20)), 234%.

In the case of `CC(C)(C)c1ccc(C(=O)CCCN2CCC(OC(c3ccccc3)c3ccccc3)CC2)cc1` [Ebastine], the hazard score entry in data set [1] (setting [3]) is recorded as “no hazard”.

As for `O=C(Nc1ccc(Oc2ccccc2)cc1)c1cccc([N+](=O)[O-])c1` [ICA-105574], the “effect on CTD90” value in data set [1] (concentration not given) is listed as “shortened”.

`CC(C)NCC(O)c1ccc(O)c(O)c1` (stereo not drawn) [Isoproterenol]: the “share of studies identified within the low and high hazard zones” value in data set [1] (100 nM (63-fold fCmax), n = 143 studies) was found to be 92%. In the case of `COc1cc2c(cc1OC)CC(=O)N(CCCN(C)C[C@H]1Cc3cc(OC)c(OC)cc31)CC2` [Ivabradine], the hazard score entry in data set [1] (setting [5]) was “low”. Turning to `CC(C)(Oc1ccc(Cl)cc1)C(=O)NC1C2CC3CC1CC(NS(C)(=O)=O)(C3)C2` (stereo not drawn) [JNJ-303], in data set [1] (concentration not given), the “effect on hiPSC-CMs (detection in the assay)” value is on record as “not detected”.

For the molecule `Cc1cccc(C)c1OCC(C)N` (stereo not drawn) [Mexiletine], in data set [1] (100 µM = 67x fCmax), the cessation of beating result is given as “some cessation of beating” and the hazard score result is given as “Red”. As for `COCCOC(=O)C1=C(C)NC(C)=C(C(=O)OC(C)C)C1c1cccc([N+](=O)[O-])c1` (stereo not drawn) [Nimodipine], in data set [1] (300 nM (15-fold fCmax), n = 124 studies), the “share of studies identified within the low and high hazard zones” value is on record as 95%.

For `Cc1cc2c(s1)Nc1ccccc1N=C2N1CCN(C)CC1` [Olanzapine], the hazard score result in data set [1] (highest tested concentration 100 nM (around fCmax)) is recorded as “not found to be with any hazard level”. As to `O=C1NC(=O)C(c2ccccc2)(c2ccccc2)N1` [Phenytoin], in data set [1] (setting [6]), the hazard score result is listed as “Green”. `CCC1(c2ccccc2)C(=O)NCNC1=O` [Primidone]: the hazard score result in data set [1] (setting [6]) is “Green”. For `O=C(c1ccc(OCCN2CCCCC2)cc1)c1c(-c2ccc(O)cc2)sc2cc(O)ccc12` [Raloxifene], the results for the hazard score result in data set [1] (at >2000 folds of fCmax) and in data set [1] (at ∼700–800 folds fCmax) were “red” and “green”, respectively. Also, the IC50 in the data set on IKs was 4800 nM; in the data set with IKr it was 1100 nM. As to `CC(C)NCC(O)c1ccc(NS(C)(=O)=O)cc1` (stereo not drawn) [Sotalol], in data set [2] (iCell Cardiomyocytes, 10 µM), the “EAD incidence compared to the two lots of iCell-Cardiomyocytes^2 (3 and 10 µM)” value is reported as “much higher”. For the molecule `Nc1ncnc2c1ncn2[C@@H]1O[C@H](CO)[C@@H](O)[C@H]1O` [adenosine], the hazard score result in data set [1] (setting [5]) is listed as “low”.

`C[N+](C)(C)CCOC(N)=O` [carbachol]: in data set [1] (setting [5]), the hazard score entry was “low”.

Consider `CC(C)(C)c1ccc(C(O)CCCN2CCC(C(O)(c3ccccc3)c3ccccc3)CC2)cc1` (stereo not drawn) [terfenadine], for which, in data set [1] (concentration not given), the cessation of beating result is recorded as “caused cessation of beating” and the “effect on CTD90” value is recorded as “slightly shortened”.
